This assay in a line: Jurkat Latency Reversal Assay: Jurkat HIV-luciferase clones were maintained in RPMI medium 1640 (Gibco by Life Technologies) containing 10% (vol/vol) fetal bovine serum (SAFC/Sigma-Aldrich) and 25 units/mL penicillin, 25 units/mL streptomycin (Gibco by Life Technologies), and were split 1:4 every 3 to 4 days to maintain a cell density of ˜0.3 to 1 million cells/mL. The Jurkat clones were maintained with the addition of 500 nM EFV in the medium. Three Jurkat cell clones (C16, I15, and N6), each harboring one or two integrated HIV proviruses expressing the luciferase reporter gene, were added at equal amounts for a total of 5,000 cells per well to 384-well plates containing compound titrations. Dose-response testing was performed on compounds dissolved in dimethyl sulfoxide (DMSO, Fisher Scientific, Merelbeke, Belgium) dispensed in duplicate serial 3-fold, 14-point titrations using a D300e Digital Droplet Dispenser (Hewlett-Packard) to give final assay concentrations of 10 μM to 2.1 pM in 50 μL of medium at 0.5% DMSO (vol/vol) final concentration. Cells and compound were incubated at 37° C. for 48 hours, unless otherwise indicated, followed by the addition of 20 μL of Steady-Glo® Luciferase (Promega). Luminescence resulting from the induction of the virally expressed luciferase was measured using an EnVision 2102 Multilabel Plate Reader (Perkin Elmer). Dose-response relationships were analyzed with GraphPad PRISM 6 using a four-parameter logistic regression model to calculate the concentration of compound that gives half-maximal response (EC50) and the maximal percent activation compared to the vehicle control.
For `CN[C@@H](C)C(=S)N[C@H]1CCS[C@H]2CC(C)(C)[C@@H](C(=O)N[C@H]3c4ccccc4C[C@H]3C(=O)N[C@H]3CC[C@H](NC(=O)[C@@H]4Cc5ccccc5[C@@H]4NC(=O)[C@H]4N5C(=O)[C@@H](NC(=S)[C@H](C)NC)CCS[C@H]5CC4(C)C)CC3)N2C1=O`, the EC50 (as a rule, the concentration at which the effect is half-maximal) was 32 nM.

Consider `CN[C@@H](C)C(=S)N[C@H]1CCS[C@H]2CC(C)(C)[C@@H](C(=O)N[C@H]3c4ccccc4CC[C@H]3C(=O)N[C@H]3CC[C@H](NC(=O)[C@@H]4CCc5ccccc5[C@@H]4NC(=O)[C@H]4N5C(=O)[C@@H](NC(=S)[C@H](C)NC)CCS[C@H]5CC4(C)C)CC3)N2C1=O`, for which the EC50 is 6.8 nM.

Regarding `CN[C@@H](C)C(=S)N[C@H]1CCS[C@H]2CC(C)(C)[C@@H](C(=O)N[C@H](C(=O)N[C@H]3CC[C@H](NC(=O)[C@@H](NC(=O)[C@H]4N5C(=O)[C@@H](NC(=S)[C@H](C)NC)CCS[C@H]5CC4(C)C)c4ccccc4)CC3)c3ccccc3)N2C1=O`, the EC50 is 89.5 nM.

On to `CN[C@@H](C)C(=O)N[C@H]1CCS[C@H]2CC(C)(C)[C@@H](C(=O)N[C@H]3c4ccccc4CC[C@H]3C(=O)N[C@H]3CC[C@H](NC(=O)[C@@H]4CCc5ccccc5[C@@H]4NC(=O)[C@H]4N5C(=O)[C@@H](NC(=O)[C@H](C)NC)CCS[C@H]5CC4(C)C)CC3)N2C1=O`, for which the EC50 is 324 nM.

As to `CN[C@@H](C)C(=O)N[C@H]1CCS[C@H]2CC(C)(C)[C@@H](C(=O)N[C@H]3c4ccccc4C[C@H]3C(=O)N[C@H]3CC[C@H](NC(=O)[C@@H]4Cc5ccccc5[C@@H]4NC(=O)[C@H]4N5C(=O)[C@@H](NC(=O)[C@H](C)NC)CCS[C@H]5CC4(C)C)CC3)N2C1=O`, the EC50 is 429 nM.

Consider `CN[C@@H](C)C(=O)N[C@H]1CCS[C@H]2CC(C)(C)[C@@H](C(=O)N[C@H](C(=O)N[C@H]3CC[C@H](NC(=O)[C@@H](NC(=O)[C@H]4N5C(=O)[C@@H](NC(=O)[C@H](C)NC)CCS[C@H]5CC4(C)C)c4ccccc4)CC3)c3ccccc3)N2C1=O`, for which the half-maximal effective concentration (EC50) is 53.7 nM.

(Values after ChEMBL document CHEMBL5729456, “Compounds useful in HIV therapy” (2022).)
